Measurements published in US11999728B2, “Estrogen receptor modulators” (Recurium IP Holdings, LLC, priority 2020, dated 2024).

Legend:
[1] = tested on: MCF-7 Human Breast Cancer Orthotopic Model; assay: Efficacy Study on MCF-7 Human Breast Cancer Orthotopic Model (tumor growth inhibition); format: in vivo, mouse; settings: tumor growth inhibition = (1−(Td−T0)/(Cd−C0))×100%; MCF-7 orthotopic model
Description: Efficacy Study on MCF-7 Human Breast Cancer Orthotopic Model
The MCF-7 tumor cell line were maintained in vitro as monolayer culture in DMEM Medium supplemented with 15% heat inactivated fetal bovine serum at 37° C. in an atmosphere of 5% CO2 in air. The medium were renewed every 2 to 3 days and tumor cells were routinely subcultured at a confluence of 80%-90% by trypsin-EDTA, not to exceed 4-5 passages. The cells growing in an exponential growth phase were harvested and counted for tumor inoculation.
Each mouse was inoculated subcutaneously on the 2nd right mammary fat pad with the single cell suspension of 95% viable tumor cells (1.5×10^7) in 200 μL DMEM Matrigel mixture (1:1 ratio) without serum for the tumor development. The treatments were started when mean tumor size reached 195 mm^3.
The measurement of tumor size was conducted twice a week with a caliper and the tumor volume (mm^3) was estimated using the formula: TV=a×b^2/2 throughout the study, where “a” and “b” was long and short diameters of a tumor, respectively. The TVs were used for calculation of the tumor growth inhibition (TGI, an indicator of antitumor effectiveness) value using the formula: (1−(Td−T0)/(Cd−C0))×100%. Td and Cd are the mean tumor volumes of the treated and control animals, and T0 and C0 are the mean tumor volumes of the treated and control animals at the start of the experiment. The tumor regression was defined as individual tumor volume decrease (terminal TV compares to initial TV). The percent tumor regression was calculated using the formula: (1−(Td/T0))×100%.

[2] = Pharmacokinetic Determination (Mouse PK); format: in vivo, female CD-1 mice; settings: female; for Kp at 2 h: CD-1, PO 10.0 mg/kg, Brain concentration vs plasma concentration at 2 hours post dosing, read-out: B/P ratio; for AUC(0-t) / bioavailability / Cmax / Tmax / clearance / half-life / Vd: CD-1, plasma; for bioavailability: PO 10.0 mg/kg vs IV 3.0 mg/kg; for Vd: read-out: Vdss
Description: Pharmacokinetic Determination
Grouping female CD-1 mice weighing 20-30 g randomly to three groups; one group was administered with test compound at a dose of 3.0 mg/kg by intravenous injection, the other two groups were administered with test compound at a dose of 10.0 mg/kg by oral. The formulation for IV groups is DMSO/PEG400/30% HP-β-CD (5/20/75) and the formulation for PO groups is 25% HP-β-CD in 25 mM citrate buffer (pH3.0). After administering, blood samples of intravenous injection group were collected at time points of predose, 0.0833, 0.25, 0.5, 1, 2, 4, 8, 12 and 24 h; blood samples of oral group were collected at time points of predose, 0.25, 0.5, 1, 2, 4, 8, 12, and 24 h. Both blood samples and brain samples were collected at 2 hours post dosing for the second PO group. Standard curve was plotted based on concentrations of the samples in a suitable range, the concentrations of test compounds in plasma samples and brain samples were determined by using LC-MS/MS. Pharmacokinetic parameters were calculated according to drug concentration-time curve using a noncompartmental method by WinNonLin (Phoenix™, version 6.1) or other similar software.

MCF7 = assay: Breast Cancer Cell Proliferation Assay (MCF-7), Cell Titer-Glo; format: cell-based; settings: Homo sapiens, MCF7 cells, 5 days of compound exposure
Procedure, shortened: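 MCF7 cells in phenol red-free DMEM/F12 with charcoal-stripped FBS exposed 5 days to 10-point dilutions (10–0.000005 μM final), 17β-estradiol as control. Viability by CellTiter-Glo luminescence, background-subtracted and expressed relative to estrogen-only treated cells; day-1 pretreatment wells plated.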

[3] = Plasma and tumor PK analysis post final dosing in MCF-7 orthotopic model; format: in vivo, mouse; settings: MCF-7 orthotopic model mice; for Tumor AUC: tumor samples 2 h, 8 h and 24 h post final dosing; for AUC / Kp: mouse; for AUC: plasma, post final dosing, 0.25-24 h; for Kp: tumor AUC vs plasma AUC, read-out: Tumor/Plasma ratio
Description: Plasma samples were collected with seven time points (0.25 h, 0.5 h, 1 h, 2 h, 4 h, 8 h, and 24 h) post final dosing for PK analysis. Tumor samples were collected with three time points (2 h, 8 h and 24 h) post final dosing for PK analysis.

Structure (SMILES)	Kp at 2 h [2]	AUC(0-t) ([2]; IV, 3.0 mg/kg) [µM·h]	bioavailability [2] [%]	AUC(0-t) ([2]; PO, 10.0 mg/kg) [µM·h]	Cmax ([2]; PO, 10.0 mg/kg) [nM]	Tmax ([2]; PO, 10.0 mg/kg) [h]	IC50 (MCF7; MCF7, 120 h) [nM]	Tumor AUC [3] [ng·h/mL]	AUC [3] [ng·h/mL]	Kp [3]	clearance ([2]; IV, 3.0 mg/kg) [mL/min/kg]	half-life ([2]; PO, 10.0 mg/kg) [h]	TGI [1] [%]	half-life ([2]; IV, 3.0 mg/kg) [h]	Vd ([2]; IV, 3.0 mg/kg) [L/kg]	IC50 (MCF7; 120 h) [nM]
C[C@@H]1Cc2c([nH]c3ccccc23)[C@@H](c2cnc(NC3CN(CCCF)C3)cn2)N1C12CC(C1)C2 [Compound 16, 5-((1S,3R)-2-(bicyclo[1.1.1]pentan-1-yl)-3-methyl-2,3,4,9-tetrahydro-1H-pyrido[3,4-b]indol-1-yl)-N-(1-(3-fluoropropyl)azetidin-3-yl)pyrazin-2-amine]	–	2.08	39.5	2.73	590	1	≤ 25	–	–	–	53.5	3.24	–	3.85	11.8	–
C[C@@H]1Cc2c([nH]c3ccccc23)[C@@H](c2c(F)cc(NC3CN(CCCF)C3)cc2F)N1C12CC(C1)C2 [Compound 1, N-(4-((1R,3R)-2-(bicyclo[1.1.1]pentan-1-yl)-3-methyl-2,3,4,9-tetrahydro-1H-pyrido[3,4-b]indol-1-yl)-3,5-difluorophenyl)-1-(3-fluoropropyl)azetidin-3-amine]	11	2.79	52.4	4.88	466	2	–	–	–	–	24.2	10.5	–	18	31.9	≤ 25
C[C@@H]1Cc2c([nH]c3ccccc23)[C@@H](c2c(F)cc(NC3CN(CCCF)C3)cc2F)N1CC(F)(F)CO [GDC9545, reference compound]	0.17	–	–	13.3	960	4	≤ 25	183743	10500	17.5	–	8.66	130	–	–	–
C[C@@H]1Cc2c([nH]c3ccccc23)[C@@H](c2ccc(NC3CN(CCCF)C3)cn2)N1C12CC(C1)C2 [Compound 2, 6-((1S,3R)-2-(bicyclo[1.1.1]pentan-1-yl)-3-methyl-2,3,4,9-tetrahydro-1H-pyrido[3,4-b]indol-1-yl)-N-(1-(3-fluoropropyl)azetidin-3-yl)pyridin-3-amine]	2.87	1.74	43.3	2.51	358	1	–	–	–	–	55.8	7.23	–	8.78	31.9	≤ 25

Continued, in another order:

Kp at 2 h [2]	AUC(0-t) ([2]; IV, 3.0 mg/kg) [µM·h]	bioavailability [2] [%]	AUC(0-t) ([2]; PO, 10.0 mg/kg) [µM·h]	Cmax ([2]; PO, 10.0 mg/kg) [nM]	Tmax ([2]; PO, 10.0 mg/kg) [h]	IC50 (MCF7; MCF7, 120 h) [nM]	Tumor AUC [3] [ng·h/mL]	AUC [3] [ng·h/mL]	Kp [3]	clearance ([2]; IV, 3.0 mg/kg) [mL/min/kg]	half-life ([2]; PO, 10.0 mg/kg) [h]	Structure (SMILES)	TGI [1] [%]	half-life ([2]; IV, 3.0 mg/kg) [h]	Vd ([2]; IV, 3.0 mg/kg) [L/kg]	IC50 (MCF7; 120 h) [nM]
12	1.03	87.7	3	240	2	≤ 25	360399	6780	53.1	–	–	CCCN1CC(Nc2ccc([C@@H]3c4[nH]c5ccccc5c4C[C@@H](C)N3C34CC(C3)C4)cc2)C1 [Compound 31, N-(4-((1R,3R)-2-(bicyclo[1.1.1]pentan-1-yl)-3-methyl-2,3,4,9-tetrahydro-1H-pyrido[3,4-b]indol-1-yl)phenyl)-1-propylazetidin-3-amine]	106	–	–	–
29.4	1.51	55.4	2.79	220	1	≤ 25	296719	5310	55.9	40	–	C[C@@H]1Cc2c([nH]c3ccccc23)[C@@H](c2ccc(N[C@H]3CCN(CCCF)C3)cc2)N1C12CC(C1)C2 [Compound 42, (S)—N-(4-((1R,3R)-2-(bicyclo[1.1.1]pentan-1-yl)-3-methyl-2,3,4,9-tetrahydro-1H-pyrido[3,4-b]indol-1-yl)phenyl)-1-(3-fluoropropyl)pyrrolidin-3-amine]	106	–	–	–
10.8	0.892	47.3	1.45	200	1	≤ 25	–	–	–	100	9.2	C[C@@H]1Cc2c([nH]c3ccccc23)[C@@H](c2ccc(NC3CN(CCCF)C3)cc2F)N1C12CC(C1)C2 [Compound 15, N-(4-((1R,3R)-2-(bicyclo[1.1.1]pentan-1-yl)-3-methyl-2,3,4,9-tetrahydro-1H-pyrido[3,4-b]indol-1-yl)-3-fluorophenyl)-1-(3-fluoropropyl)azetidin-3-amine]	–	10	66.4	–
